Reference: patent publication US8530473B2, “Tetrahydroquinoxaline urea derivatives as modulators of 11β-hydroxysteroid dehydrogenase type 1” (Sanofi, priority 2009, dated 2013)
Structures can show the parent of a compound that is named as a salt.

Assays:
11βHSD1 = target: T1, 11βHSD1 (Homo sapiens, UniProt P28845); assay: 11βHSD1 Scintillation Proximity Assay (SPA), 384-well format; type: biochemical; details: recombinant 11βHSD1 produced in S. cerevisiae; 3H-cortisone and NADPH; cortisol formed measured by SPA
T1 construct: made in house; host or cells: S. cerevisiae yeast
Procedure: The compounds according to the invention have undergone pharmacological tests for determining their inhibitory effect on the enzyme 11βHSD1, which is involved in lipid metabolism and in glucose metabolism.
These tests consisted of measuring the inhibitory activity in vitro of compounds of the invention on the enzyme 11βHSD1 using a Scintillation Proximity Assay (SPA) in 384-well format. The recombinant 1βHSD1 protein was produced in S. cerevisiae yeast. The reaction was carried out by incubating the enzyme in the presence of ^3H-cortisone and NADPH, in the absence or in the presence of increasing concentration of inhibitor. SPA beads coupled to an antimouse antibody, preincubated with an anticortisol antibody, made it possible to measure the amount of cortisol formed during the reaction.
The inhibitory activity with respect to the enzyme 11βHSD1 is given by the concentration that inhibits 50% of the activity of 11βHSD1 (IC50).

healthy volunteers = details: after seven days of treatment, healthy volunteers (Rauz et al. 2001); cited from earlier work

T1 sequence (P28845 whole entry): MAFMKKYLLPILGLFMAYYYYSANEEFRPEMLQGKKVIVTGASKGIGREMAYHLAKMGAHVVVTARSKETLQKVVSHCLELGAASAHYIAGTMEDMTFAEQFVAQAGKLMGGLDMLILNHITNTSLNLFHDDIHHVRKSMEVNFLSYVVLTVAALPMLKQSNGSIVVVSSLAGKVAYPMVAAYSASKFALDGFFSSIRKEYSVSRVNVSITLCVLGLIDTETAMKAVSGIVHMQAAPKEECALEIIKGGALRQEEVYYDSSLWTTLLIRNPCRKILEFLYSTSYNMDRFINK

Row | SMILES | melting point [°C] | IC50 (11βHSD1) [nM] | IOP is reduced by (healthy volunteers) [%]
1 | C[Si]1(c2ccccc2)CCN(c2ccc(N3CCN(C(=O)N[C@H]4C5CC6CC4C[C@@](C(N)=O)(C6)C5)c4ccccc43)nc2)CC1 [Compound 13, Trans 4-[5-(4-methyl-4-phenyl-[1,4]azasilinan-1-yl)-pyridin-2-yl]-3,4-dihydro-2H-quinoxaline-1-carboxylic acid (5-carbamoyl-adamantan-2-yl)-amide] | 106 to 108 | 25 | 
2 | C[Si](C)(C)CCS(=O)(=O)N1CCN(c2ccc(N3CCN(C(=O)NC4C5CC6CC4CC(O)(C6)C5)c4ccccc43)nc2)CC1 (stereo not drawn) [Compound 3, Trans 4-{5-[4-(2-trimethylsilanyl-ethanesulfonyl)-piperazin-1-yl]-pyridin-2-yl}-3,4-dihydro-2H-quinoxaline-1-carboxylic acid (5-hydroxy-adamantan-2-yl)-amide] | 107 to 120 | 10 | 
3 | NC(=O)C12CC3CC(C1)C(NC(=O)N1CCN(c4ccc(N5CCC(N6CC[C@H](O)C6)CC5)cn4)c4ccccc41)C(C3)C2 (stereo in doubt) [Compound 8, Trans 4-[4-((S)-3-hydroxy-pyrrolidin-1-yl)-3,4,5,6-tetrahydro-2H-[1,3′]bipyridinyl-6′-yl]-3,4-dihydro-2H-quinoxaline-1-carboxylic acid (5-carbamoyl-adamantan-2-yl)-amide] |  | 6 | 
4 | C[Si](C)(C)CN1CCN(c2ccc(N3CCN(C(=O)NC4C5CC6CC4CC(O)(C6)C5)c4ccccc43)nc2)CC1 (stereo not drawn) [Compound 1, Trans 4-[5-(4-trimethylsilanylmethyl-piperazin-1-yl)-pyridin-2-yl]-3,4-dihydro-2H-quinoxaline-1-carboxylic acid (5-hydroxy-adamantan-2-yl)-amide] |  | 7 | 
5 | NC(=O)C12CC3CC(C1)C(NC(=O)N1CCN(c4ccc(N5CCC(N6CCC[C@H]6CO)CC5)cn4)c4ccccc41)C(C3)C2 (stereo in doubt) [Compound 7, Trans 4-[4-((S)-2-hydroxymethyl-pyrrolidin-1-yl)-3,4,5,6-tetrahydro-2H-[1,3′]bipyridinyl-6′-yl]-3,4-dihydro-2H-quinoxaline-1-carboxylic acid (5-carbamoyl-adamantan-2-yl)-amide] |  | 3 | 
6 | NC(=O)C12CC3CC(C1)C(NC(=O)N1CCN(c4ccc(N5CCC(N6CCC[C@@H]6CO)CC5)cn4)c4ccccc41)C(C3)C2 (stereo in doubt) [Compound 6, Trans 4-[4-((R)-2-hydroxymethyl-pyrrolidin-1-yl)-3,4,5,6-tetrahydro-2H-[1,3′]bipyridinyl-6′-yl]-3,4-dihydro-2H-quinoxaline-1-carboxylic acid (5-carbamoyl-adamantan-2-yl)-amide] |  | 4 | 
7 | CC1(C)[C@@H](OC(=O)CCC(=O)O)CC[C@]2(C)[C@H]3C(=O)C=C4[C@@H]5C[C@@](C)(C(=O)O)CC[C@]5(C)CC[C@@]4(C)[C@]3(C)CC[C@@H]12 [carbenoxolone] |  |  | 18
8 | CC(C)(C)ON=C1CCN(c2ccc(N3CCN(C(=O)N[C@H]4C5CC6CC4C[C@@](O)(C6)C5)c4ccccc43)nc2)CC1 [Compound 2, Trans 4-(4-tert-butoxyimino-3,4,5,6-tetrahydro-2H-[1,3′]bipyridinyl-6′-yl)-3,4-dihydro-2H-quinoxaline-1-carboxylic acid (5-hydroxy-adamantan-2-yl)-amide] | 110 to 113 | 23 | 

Continued, in another order:

Row | melting point [°C] | IC50 (11βHSD1) [nM] | SMILES | IOP is reduced by (healthy volunteers) [%]
9 | 196 |  | NC(=O)C12CC3CC(C1)C(NC(=O)N1CCN(c4ccc(N5CCC(N6CCC(F)(F)C6)CC5)cn4)c4ccccc41)C(C3)C2 (stereo not drawn) (as salt: HCl) [Compound 10, Trans 4-[4-(3,3-difluoro-pyrrolidin-1-yl)-3,4,5,6-tetrahydro-2H-[1,3′]bipyridinyl-6′-yl]-3,4-dihydro-2H-quinoxaline-1-carboxylic acid (5-carbamoyl-adamantan-2-yl)-amide] | 
10 | 191 |  | NC(=O)[C@]12CC3CC(C1)[C@H](NC(=O)N1CCN(c4ccc(N5CCC(N6CC[C@@H](O)C6)CC5)cn4)c4ccccc41)C(C3)C2 (as salt: HCl) [Compound 9, Trans 4-[4-((R)-3-hydroxy-pyrrolidin-1-yl)-3,4,5,6,-tetrahydro-2H-[1,3′]bipyridinyl-6′-yl]-3,4-dihydro-2H-quinoxaline-1-carboxylic acid (5-carbamoyl-adamantan-2-yl)-amide] | 
11 |  | 2 | NC(=O)[C@]12CC3CC(C1)[C@H](NC(=O)N1CCN(c4ccc(N5CCC(N6CC[C@@H](O)C6)CC5)cn4)c4ccccc41)C(C3)C2 [Compound 9, Trans 4-[4-((R)-3-hydroxy-pyrrolidin-1-yl)-3,4,5,6,-tetrahydro-2H-[1,3′]bipyridinyl-6′-yl]-3,4-dihydro-2H-quinoxaline-1-carboxylic acid (5-carbamoyl-adamantan-2-yl)-amide] | 
12 | 160 to 200 | 4 | NC(=O)[C@]12CC3CC(C1)[C@H](NC(=O)N1CCN(c4ccc(N5CCC(N6CCS(=O)(=O)CC6)CC5)cn4)c4ccccc41)C(C3)C2 [Compound 5, Trans 4-[4-(1,1-dioxo-1lambda6-thiomorpholin-4-yl)-3,4,5,6-tetrahydro-2H-[1,3′]bipyridinyl-6′-yl]-3,4-dihydro-2H-quinoxaline-1-carboxylic acid (5-carbamoyl-adamantan-2-yl)-amide] | 
13 |  | 2 | NC(=O)C12CC3CC(C1)C(NC(=O)N1CCN(c4ccc(N5CCC(N6CCC(F)(F)C6)CC5)cn4)c4ccccc41)C(C3)C2 (stereo not drawn) [Compound 10, Trans 4-[4-(3,3-difluoro-pyrrolidin-1-yl)-3,4,5,6-tetrahydro-2H-[1,3′]bipyridinyl-6′-yl]-3,4-dihydro-2H-quinoxaline-1-carboxylic acid (5-carbamoyl-adamantan-2-yl)-amide] | 
14 | 145 to 160 | 6 | NC(=O)[C@]12CC3CC(C1)[C@H](NC(=O)N1CCN(c4ccc(N5CCC6(CC5)CC6C(=O)O)cn4)c4ccccc41)C(C3)C2 (stereo partly drawn) [Compound 12, trans-6-{6-[4-(5-Carbamoyl-adamantan-2-ylcarbamoyl)-3,4-dihydro-2H-quinoxalin-1-yl]-pyridin-3-yl}-6-aza-spiro[2.5]octane-1-carboxylic acid] | 
15 | 213 to 216 | 12 | C[Si]1(C)CCN(c2ccc(N3CCN(C(=O)NC4C5CC6CC4CC(C(N)=O)(C6)C5)c4ccccc43)nc2)CC1 (stereo not drawn) [Compound 14, Trans 4-[5-(4,4-dimethyl-[1,4]azasilinan-1-yl)-pyridin-2-yl]-3,4-dihydro-2H-quinoxaline-1-carboxylic acid (5-carbamoyl-adamantan-2-yl)-amide] | 
16 | 134 to 170 | 3 | Cl.NC(=O)[C@]12CC3CC(C1)[C@H](NC(=O)N1CCN(c4ccc(N5CCC6(CC5)CC6(F)F)cn4)c4ccccc41)C(C3)C2 [Compound 11, Trans 4-[5-(1,1-difluoro-6-aza-spiro[2.5]oct-6-yl)-pyridin-2-yl]-3,4-dihydro-2H-quinoxaline-1-carboxylic acid (5-carbamoyl-adamantan-2-yl)-amide] | 
17 | 206 | 3 | NC(=O)[C@]12CC3CC(C1)[C@H](NC(=O)N1CCN(c4ccc(N5CCN(CC6CC6(F)F)CC5)cn4)c4ccccc41)C(C3)C2 (stereo partly drawn) [Compound 4, Trans 4-{5-[4-(2,2-difluoro-cyclopropylmethyl)-piperazin-1-yl]-pyridin-2-yl}-3,4-dihydro-2H-quinoxaline-1-carboxylic acid (5-carbamoyl-adamantan-2-yl)-amide] | 
